SMILES strings stand for the structures. Converted amounts (≈) assume the structure as drawn.

One series deals with ATF4. Put plainly: HEK-ATF4 High Content Imaging assay (prevention of Tunicamycin induced ISR; ATF4 signal ratio between nucleus and cytoplasm). Format: cell-based. The settings on record: Homo sapiens; Wild-type HEK293 cells, Tunicamycin induced ISR, 6 h; read-out: IIEK-ATF4 Activity. As to the method: HEK-ATF4 High Content Imaging Assay
Example compounds were tested in the HEK-ATF4 High Content Imaging assay to assess their pharmacological potency to prevent Tunicamycin induced ISR. Wild-type HEK293 cells were plated in 384-well imaging assay plates at a density of 12,000 cells per well in growth medium (containing DMEM/F12, 10% FBS, 2 mM L-Glutamine, 100 U/mL Penicillin-100 μg/mL Streptomycin) and incubated at 37° C., 5% CO2. 24 h later, the medium was changed to 50 μL assay medium per well (DMEM/F12, 0.3% FBS, 2 mM L-Glutamine, 100 U/mL Penicillin-100 μg/mL Streptomycin). Example compounds were serially diluted in DMSO, spotted into intermediate plates and prediluted with assay medium containing 3.3 μM Tunicamycin to give an 11-fold excess of final assay concentration. In addition to the example compound testing area, the plates also contained multiples of control wells for assay normalization purposes, wells containing Tunicamycin but no example compounds (High control), as well as wells containing neither example compound nor Tunicamycin (Low control). The assay was started by transferring 5 μL from the intermediate plate into the assay plates, followed by incubation for 6 h at 37° C., 5% CO2. Subsequently, cells were fixed (4% PFA in PBS, 20 min at r.t.) and submitted to indirect ATF4 immunofluorescence staining (primary antibody rabbit anti ATF4, clone D4B8, Cell Signaling Technologies; secondary antibody Alexa Fluor 488 goat anti-rabbit IgG (H+L), Thermofisher Scientific). Nuclei were stained using Hoechst dye (Thermofisher Scientific), and plates were imaged on an Opera Phenix High Content imaging platform equipped with 405 nm and 488 nm excitation. Finally, images were analyzed using script based algorithms. The main readout HEK-ATF4 monitored the ATF4 signal ratio between nucleus and cytoplasm. Tunicamycin induced an increase in the overall ATF4 ratio signal, which was prevented by ISR modulating example compounds. In addition, HEK-CellCount readout was derived from counting the number of stained nuclei corresponding to healthy cells. This readout served as an internal toxicity control.
For `O=C(COc1ccc(Cl)c(F)c1)N[C@H]1CC[C@H](c2nnc(-c3ccc(Cl)cc3)o2)NC1=O` (racemic) [Example 37, Rac-2-(4-chloro-3-fluorophenoxy)-N-[6-[5-(4-chlorophenyl)-1,3,4-oxadiazol-2-yl]-2-oxopiperidin-3-yl]acetamide], the IC50 lay in the range of 1 to 500 nM.
The same measure, in the same setting: with `C[C@H](Oc1ccc(Cl)cc1)C(=O)N[C@H]1CC[C@H](c2nnc(-c3ccc(C(F)(F)F)cc3)o2)NC1` (single isomer, unassigned) [Example 107] the figure was 2000 to 15000 nM; with `O=C(COc1ccc(Cl)cc1F)N[C@H]1CC[C@H](c2nnc(OCCC(F)(F)F)o2)NC1` [Example 17, 2-(4-chloro-2-fluorophenoxy)-N-[(3S,6R)-6-[5-(3,3,3-trifluoropropoxy)-1,3,4-oxadiazol-2-yl]piperidin-3-yl]acetamide], 2000 to 15000 nM.
On the same count and under the same terms, the value for `O=C(COc1ccc(F)c(Cl)c1)N[C@H]1CC[C@H](c2nnc(OCCC(F)(F)F)o2)NC1` [Example 18, 2-(3-chloro-4-fluorophenoxy)-N-[(3S,6R)-6-[5-(3,3,3-trifluoropropoxy)-1,3,4-oxadiazol-2-yl]piperidin-3-yl]acetamide] was 500 to 2000 nM; that for `O=C(COc1ccc(C(F)(F)F)cc1)N[C@H]1CC[C@H](c2nnc(OCCC(F)(F)F)o2)NC1` [Example 19, 2-[4-(trifluoromethyl)phenoxy]-N-[(3S,6R)-6-[5-(3,3,3-trifluoropropoxy)-1,3,4-oxadiazol-2-yl]piperidin-3-yl]acetamide] was 500 to 2000 nM; that for `O=C(COc1ccc(Cl)c(Cl)c1)N[C@H]1CC[C@H](c2nnc(OCCC(F)(F)F)o2)NC1` [Example 20, 2-(3,4-dichlorophenoxy)-N-[(3S,6R)-6-[5-(3,3,3-trifluoropropoxy)-1,3,4-oxadiazol-2-yl]piperidin-3-yl]acetamide] was 1 to 500 nM.
Still for that read-out and setting: with `O=C(COc1ccc(Cl)c(F)c1F)N[C@H]1CC[C@H](c2nnc(OCCC(F)(F)F)o2)NC1` [Example 21, 2-(4-chloro-2,3-difluorophenoxy)-N-[(3S,6R)-6-[5-(3,3,3-trifluoropropoxy)-1,3,4-oxadiazol-2-yl]piperidin-3-yl]acetamide] the figure was 500 to 2000 nM.
Take `O=C(COc1cc(F)c(Cl)c(F)c1)N[C@H]1CC[C@H](c2nnc(OCCC(F)(F)F)o2)NC1` [Example 22, 2-(4-chloro-3,5-difluorophenoxy)-N-[(3S,6R)-6-[5-(3,3,3-trifluoropropoxy)-1,3,4-oxadiazol-2-yl]piperidin-3-yl]acetamide]: the IC50 lay within 500 to 2000 nM.
For `O=C(COc1ccc(C(F)(F)F)c(F)c1)N[C@H]1CC[C@H](c2nnc(OCCC(F)(F)F)o2)NC1` [Example 23, 2-[3-fluoro-4-(trifluoromethyl)phenoxy]-N-[(3S,6R)-6-[5-(3,3,3-trifluoropropoxy)-1,3,4-oxadiazol-2-yl]piperidin-3-yl]acetamide], the IC50 was in the range of 1 to 500 nM.
Consider `O=C(N[C@H]1CC[C@H](c2nnc(OCCC(F)(F)F)o2)NC1)C(F)(F)Oc1ccc(Cl)c(F)c1` [Example 24, 2-(4-chloro-3-fluorophenoxy)-2,2-difluoro-N-[(3S,6R)-6-[5-(3,3,3-trifluoropropoxy)-1,3,4-oxadiazol-2-yl]piperidin-3-yl]acetamide], for which the IC50 was 500 to 2000 nM.
Same read-out and setting: the value for `O=C(COc1ccc(C(F)(F)F)c(Cl)c1)N[C@H]1CC[C@H](c2nnc(OCCC(F)(F)F)o2)NC1` [Example 25, 2-[3-chloro-4-(trifluoromethyl)phenoxy]-N-[(3S,6R)-6-[5-(3,3,3-trifluoropropoxy)-1,3,4-oxadiazol-2-yl]piperidin-3-yl]acetamide] was 1 to 500 nM.
With `O=C(COc1cc(Cl)c(Cl)c(Cl)c1)N[C@H]1CC[C@H](c2nnc(OCCC(F)(F)F)o2)NC1` [Example 26, 2-(3,4,5-trichlorophenoxy)-N-[(3S,6R)-6-[5-(3,3,3-trifluoropropoxy)-1,3,4-oxadiazol-2-yl]piperidin-3-yl]acetamide], the IC50 is 2000 to 15000 nM.
Still for that read-out and setting: with `O=C(COc1ccc(Br)cc1)N[C@H]1CC[C@H](c2nnc(OCCC(F)(F)F)o2)NC1` [Example 27, 2-(4-bromophenoxy)-N-[(3S,6R)-6-[5-(3,3,3-trifluoropropoxy)-1,3,4-oxadiazol-2-yl]piperidin-3-yl]acetamide] the figure was 1 to 500 nM; with `O=C(COc1cccc(C(F)(F)F)c1)N[C@H]1CC[C@H](c2nnc(OCCC(F)(F)F)o2)NC1` [Example 28, 2-[3-(trifluoromethyl)phenoxy]-N-[(3S,6R)-6-[5-(3,3,3-trifluoropropoxy)-1,3,4-oxadiazol-2-yl]piperidin-3-yl]acetamide], 2000 to 15000 nM.
With `O=C(COc1ccc(Cl)c(F)c1)N[C@@H]1CC[C@H](c2nnc(-c3ccc(Cl)cc3)o2)NC1` [Example 36, 2-(4-chloro-3-fluorophenoxy)-N-[(3R,6R)-6-[5-(4-chlorophenyl)-1,3,4-oxadiazol-2-yl]piperidin-3-yl]acetamide], the IC50 fell in the range of 500 to 2000 nM.
On the same count and under the same terms, with `CC(C)(C)OC(=O)N1C[C@@H](NC(=O)COc2ccc(Cl)c(F)c2)CC[C@@H]1c1nnc(-c2ccc(Cl)cc2)o1` [Example 39, tert-butyl (2R,5S)-5-[2-(4-chloro-3-fluorophenoxy)acetamido]-2-[5-(4-chlorophenyl)-1,3,4-oxadiazol-2-yl]piperidine-1-carboxylate] the figure was 2000 to 15000 nM; with `COCCN1C[C@H](NC(=O)COc2ccc(Cl)c(F)c2)CC[C@H]1c1nnc(-c2ccc(Cl)cc2)o1` [Example 48, 2-(4-chloro-3-fluoro-phenoxy)-N-[(3R,6S)-6-[5-(4-chlorophenyl)-1,3,4-oxadiazol-2-yl]-1-(2-methoxyethyl)piperidin-3-yl]acetamide], 500 to 2000 nM.
Still for that read-out and setting: with `CC(COc1nnc([C@H]2CC[C@H](NC(=O)COc3ccc(Cl)c(F)c3)CN2)o1)C(F)(F)F` (stereo partly drawn) [Example 63, 2-(4-chloro-3-fluorophenoxy)-N-[(3S,6R)-6-[5-(3,3,3-trifluoro-2-methylpropoxy)-1,3,4-oxadiazol-2-yl]piperidin-3-yl]acetamide] the figure was 500 to 2000 nM; with `O=C(COc1ccc(Cl)c(F)c1)N[C@H]1CC[C@H](c2nnc(OCC(F)(F)C(F)(F)F)o2)NC1` [Example 73, 2-(4-chloro-3-fluorophenoxy)-N-[(3S,6R)-6-[5-(2,2,3,3,3-pentafluoropropoxy)-1,3,4-oxadiazol-2-yl]piperidin-3-yl]acetamide], 500 to 2000 nM.
On the same count and under the same terms, with `O=C(COc1ccc(Cl)c(F)c1)N[C@H]1CC[C@H](c2nnc(OCCCC(F)(F)F)o2)NC1` [Example 74, 2-(4-chloro-3-fluorophenoxy)-N-[(3S,6R)-6-[5-(4,4,4-trifluorobutoxy)-1,3,4-oxadiazol-2-yl]piperidin-3-yl]acetamide] the figure was 1 to 500 nM.

System in the next series: not listed separately
The series can be described thus: Thermodynamic (Equilibrium) solubility in selected buffer. As to conditions: acetate buffer 50 mM, aqueous buffer, thermodynamic from solid; pH 5.5; Table 25; read-out: Solubility (μg/mL) pH 5.5. Format: physicochemical. As for the experimental part: Protocol—Thermodynamic (Equilibrium) Solubility in Selected Buffer
Example compounds were tested in the Thermodynamic (Equilibrium) solubility in selected buffer assay. The test compound, in powder form, was weighted into a 4 mL glass vial and a calculated volume of selected medium was added to reach the target concentration of the solubility test (1 mg/mL). The solution was then stirred overnight at r.t. protected from the light. The solution was filtered through a 0.45 μm PTFE membrane at ambient temperature. An aliquot of the resulting filtrate was quantified using UPLC-UV method described below against a reference solution of the test compound, 0.8 mg/mL in DMSO. Media compositions: Phosphate buffer 50 mM (pH=2.0) […] of NaH2PO4, H2O in 200 mL of ultrapurified water adjusted at pH 2 with phosphoric acid 85%; Acetate buffer 50 mM (pH=5.5) 820 mg of anhydrous sodium acetate in 200 mL of ultrapurified water adjusted at pH 5.5 with acetic acid 99.8%; Phosphate buffer 50 mM (pH=7.4) 40.5 mL of Na2HPO4 0.1 M solution+9.5 mL of NaH2PO4 0.1 M solution. Analytical conditions: UPLC-UV-MS analyses were performed with a Waters Acquity UPLC HClass-PDA-QDa system using a reverse phase Acquity BEH C18 column (2.1 mm×50 mm, 1.7 μm; temperature: 40° C.) and a gradient of 10-95% B (A=0.1% formic acid in H2O; B=0.05% formic acid in ACN) over 1.8 min then 100% B for 0.8 min, with an injection volume of 0.4 μL at flow rate of 0.65 mL/min. UV chromatograms were recorded at 220 nm, 254 nm and 290 nm using a photo diode array detector. Mass spectra were recorded in the 150 to 900 M/Z range at a sampling rate of 10 scans per sec using a QDa detector. Data were integrated using Empower®3 software. Data Analysis: Equilibrium solubility of the test compound in the selected medium was calculated through the ratio of the surface area of the UV chromatographic peak of the compound in the filtrate to the surface of the UV chromatographic peak of the compound in the reference solution.
For the compound `O=C(CO[C@H]1C[C@@H](OC(F)(F)F)C1)N[C@@H]1CC[C@@H](c2nnc(-c3ccc(Cl)cc3)o2)NC1` [Example 5], the solubility is 215 µg/mL (≈ 453 µM).

Staying with this series, now noted: pH 2.0; Table 25.
On to `O=C(CO[C@H]1C[C@@H](OC(F)(F)F)C1)N[C@@H]1CC[C@@H](c2nnc(-c3ccc(Cl)cc3)o2)NC1` [Example 5], for which the “Solubility (μg/mL) pH 2.0” value is reported as “quant.^#”.

The series is the same for the next values; noted with them: phosphate buffer 50 mM, aqueous buffer, thermodynamic from solid; pH 7.4; Table 25; read-out: Solubility (μg/mL) pH 7.4.
In the case of `O=C(CO[C@H]1C[C@@H](OC(F)(F)F)C1)N[C@@H]1CC[C@@H](c2nnc(-c3ccc(Cl)cc3)o2)NC1` [Example 5], the solubility is 278 µg/mL (≈ 585 µM).
